For 2 molecules, Kd and IC50 results are on record in publication PMC3528830 (ACS chemical biology, 2012).

Bounds are passed on as bounds.

For one experiment, the target named is tRNA. Put plainly: RNA binding assay. More on the design: species or system yeast. The note with it: read-out: tRNA Kd.
Another experiment deals with r(CUG)12×2. As to conditions: read-out: r(CUG)12×2 Kd; data taken from a previous report; cited from earlier work.
In a further experiment the test system is r(CUG)10-MBNL1 complex. Put plainly: qTR-FRET assay, disruption of pre-formed r. It is filed as biochemical. The note with it: read-out: IC50 for r(CUG)-MBNL1, pre-formed r(CUG)10-MBNL1 complex, displacement.

As for `NC1C(O)[C@H](OC2[C@H](N)CC(N)[C@@H](O[C@H]3OC(CNC(=O)CCCc4cn(CCCNC(=S)Nc5ccc(-c6c7ccc(=O)cc-7oc7cc(O)ccc67)c(C(=O)O)c5)nn4)[C@@H](O)[C@H](O)C3O)[C@@H]2O)OC(CO)[C@@H]1O` (stereo partly shown) [FITC-K], the Kd (usually the concentration at which binding is half-saturated) on tRNA is greater than 10 µM; on r(CUG)12×2, 1000 ± 250 nM. Besides, in the experiment on r(CUG)10-MBNL1 complex, the IC50 – broadly, the midpoint of a concentration-inhibition curve – is greater than 250 µM.

B1: MBNL1: muscleblind-like 1 protein, RNA splicing regulator (protein, UniProt Q9NR56 1-388, looked up)
Muscleblind-like protein 1: MAVSVTPIRDTKWLTLEVCREFQRGTCSRPDTECKFAHPSKSCQVENGRVIACFDSLKGRCSRENCKYLHPPPHLKTQLEINGRNNLIQQKNMAMLAQQMQLANAMMPGAPLQPVPMFSVAPSLATNASAAAFNPYLGPVSPSLVPAEILPTAPMLVTGNPGVPVPAAAAAAAQKLMRTDRLEVCREYQRGNCNRGENDCRFAHPADSTMIDTNDNTVTVCMDYIKGRCSREKCKYFHPPAHLQAKIKAAQYQVNQAAAAQAAATAAAMTQSAVKSLKRPLEATFDLGIPQAVLPPLPKRPALEKTNGATAVFNTGIFQYQQALANMQLQQHTAFLPPVPMVHGATPATVSAATTSATSVPFAATATANQIPIISAEHLTSHKYVTQM
Consider B1, for which, on r(CUG)12×2, the dissociation constant (Kd) is 250 nM.
